Results published in ChEMBL document CHEMBL3822398, “Design, synthesis and in vitro biological evaluation of short-chain C12-sphinganine and its 1,2,3-triazole analogs as potential antimicrobial and anti-biofilm agents” (Eur J Med Chem, 2016).
≈ marks a conversion by molar mass, not a printed value. Calls of active or inactive are those of the source. No cut-off for these calls is given here.

Tests used:
Staphylococcus aureus [1] = assay: Antibacterial activity against Staphylococcus aureus MTCC 96 incubated for 24 hrs at 37 degC by well diffusion method; type: functional; details: MTCC 96, 24 h
Bacillus subtilis [2] = assay: Antibacterial activity against Bacillus subtilis MTCC 121 incubated for 24 hrs at 37 degC by well diffusion method; type: functional; details: MTCC 121, 24 h
Staphylococcus aureus [3] = assay: Antibacterial activity against Staphylococcus aureus MLS16 MTCC 2940 incubated for 24 hrs at 37 degC by well diffusion method; type: functional; details: MLS16 MTCC 2940, 24 h
Micrococcus luteus [4] = assay: Antibacterial activity against Micrococcus luteus MTCC 2470 incubated for 24 hrs at 37 degC by well diffusion method; type: functional; details: MTCC 2470, 24 h
Raoultella planticola [5] = assay: Antibacterial activity against Klebsiella planticola MTCC 530 incubated for 24 hrs at 37 degC by well diffusion method; type: functional; details: MTCC 530, 24 h
Escherichia coli [6] = assay: Antibacterial activity against Escherichia coli MTCC 739 incubated for 24 hrs at 37 degC by well diffusion method; type: functional; details: MTCC 739, 24 h
Pseudomonas aeruginosa = assay: Antibacterial activity against Pseudomonas aeruginosa MTCC 2453 incubated for 24 hrs at 37 degC by well diffusion method; type: functional; details: MTCC 2453, 24 h
Candida albicans [7] = assay: Antifungal activity against Candida albicans MTCC 183 incubated for 24 hrs at 30 degC by well diffusion method; type: functional; details: MTCC 183, 24 h
Candida albicans [8] = assay: Antifungal activity against Candida albicans MTCC 227 incubated for 24 hrs at 30 degC by well diffusion method; type: functional; details: MTCC 227, 24 h
Candida albicans [9] = assay: Antifungal activity against Candida albicans MTCC 854 incubated for 24 hrs at 30 degC by well diffusion method; type: functional; details: MTCC 854, 24 h
Candida albicans [10] = assay: Antifungal activity against Candida albicans MTCC 1637 incubated for 24 hrs at 30 degC by well diffusion method; type: functional; details: MTCC 1637, 24 h
Candida albicans [11] = assay: Antifungal activity against Candida albicans MTCC 3017 incubated for 24 hrs at 30 degC by well diffusion method; type: functional; details: MTCC 3017, 24 h
Candida albicans [12] = assay: Antifungal activity against Candida albicans MTCC 3018 incubated for 24 hrs at 30 degC by well diffusion method; type: functional; details: MTCC 3018, 24 h
Candida albicans [13] = assay: Antifungal activity against Candida albicans MTCC 3958 incubated for 24 hrs at 30 degC by well diffusion method; type: functional; details: MTCC 3958, 24 h
Candida albicans [14] = assay: Antifungal activity against Candida albicans MTCC 4748 incubated for 24 hrs at 30 degC by well diffusion method; type: functional; details: MTCC 4748, 24 h
Candida albicans [15] = assay: Antifungal activity against Candida albicans MTCC 7315 incubated for 24 hrs at 30 degC by well diffusion method; type: functional; details: MTCC 7315, 24 h
Candida parapsilosis [16] = assay: Antifungal activity against Candida parapsilosis MTCC 1744 incubated for 24 hrs at 30 degC by well diffusion method; type: functional; details: Lodderomyces parapsilosis, MTCC 1744, 24 h
[Candida] aaseri [17] = Antifungal activity against Candida aaseri MTCC 1962 incubated for 24 hrs at 30 degC by well diffusion method; type: functional; details: Yamadazyma aaseri, MTCC 1962, 24 h
Nakaseomyces glabratus [18] = assay: Antifungal activity against Candida glabrata MTCC 3019 incubated for 24 hrs at 30 degC by well diffusion method; type: functional; details: MTCC 3019, 24 h
Pichia kudriavzevii [19] = assay: Antifungal activity against Candida krusei MTCC 3020 incubated for 24 hrs at 30 degC by well diffusion method; type: functional; details: MTCC 3020, 24 h
Pichia sporocuriosa [20] = assay: Antifungal activity against Issatchenkia hanoiensis MTCC 4755 incubated for 24 hrs at 30 degC by well diffusion method; type: functional; details: MTCC 4755, 24 h
Staphylococcus aureus [21] = assay: Bactericidal activity against Staphylococcus aureus MTCC 96 incubated for 24 hrs; type: functional; details: MTCC 96, 24 h
Bacillus subtilis [22] = assay: Bactericidal activity against Bacillus subtilis MTCC 121 incubated for 24 hrs; type: functional; details: MTCC 121, 24 h
Staphylococcus aureus [23] = assay: Bactericidal activity against Staphylococcus aureus MLS16 MTCC 2940 incubated for 24 hrs; type: functional; details: MLS16 MTCC 2940, 24 h
Micrococcus luteus [24] = assay: Bactericidal activity against Micrococcus luteus MTCC 2470 incubated for 24 hrs; type: functional; details: MTCC 2470, 24 h
Raoultella planticola [25] = assay: Bactericidal activity against Klebsiella planticola MTCC 530 incubated for 24 hrs; type: functional; details: MTCC 530, 24 h
Escherichia coli [26] = assay: Bactericidal activity against Escherichia coli MTCC 739 incubated for 24 hrs; type: functional; details: MTCC 739, 24 h
Candida albicans [27] = assay: Fungicidal activity against Candida albicans MTCC 183 incubated for 24 hrs; type: functional; details: MTCC 183, 24 h
Candida albicans [28] = assay: Fungicidal activity against Candida albicans MTCC 227 incubated for 24 hrs; type: functional; details: MTCC 227, 24 h
Candida albicans [29] = assay: Fungicidal activity against Candida albicans MTCC 854 incubated for 24 hrs; type: functional; details: MTCC 854, 24 h
Candida albicans [30] = assay: Fungicidal activity against Candida albicans MTCC 1637 incubated for 24 hrs; type: functional; details: MTCC 1637, 24 h
Candida albicans [31] = assay: Fungicidal activity against Candida albicans MTCC 3017 incubated for 24 hrs; type: functional; details: MTCC 3017, 24 h
Candida albicans [32] = assay: Fungicidal activity against Candida albicans MTCC 3018 incubated for 24 hrs; type: functional; details: MTCC 3018, 24 h
Candida albicans [33] = assay: Fungicidal activity against Candida albicans MTCC 3958 incubated for 24 hrs; type: functional; details: MTCC 3958, 24 h
Candida albicans [34] = assay: Fungicidal activity against Candida albicans MTCC 4748 incubated for 24 hrs; type: functional; details: MTCC 4748, 24 h
Candida albicans [35] = assay: Fungicidal activity against Candida albicans MTCC 7315 incubated for 24 hrs; type: functional; details: MTCC 7315, 24 h
Candida parapsilosis [36] = assay: Fungicidal activity against Candida parapsilosis MTCC 1744 incubated for 24 hrs; type: functional; details: Lodderomyces parapsilosis, MTCC 1744, 24 h
[Candida] aaseri [37] = Fungicidal activity against Candida aaseri MTCC 1962 incubated for 24 hrs; type: functional; details: Yamadazyma aaseri, MTCC 1962, 24 h
Nakaseomyces glabratus [38] = assay: Fungicidal activity against Candida glabrata MTCC 3019 incubated for 24 hrs; type: functional; details: MTCC 3019, 24 h
Pichia kudriavzevii [39] = assay: Fungicidal activity against Candida krusei MTCC 3020 incubated for 24 hrs; type: functional; details: MTCC 3020, 24 h
Pichia sporocuriosa [40] = assay: Fungicidal activity against Issatchenkia hanoiensis MTCC 4755 incubated for 24 hrs; type: functional; details: MTCC 4755, 24 h
Candida albicans [41] = assay: Induction of ROS accumulation in Candida albicans MTCC 227 sessile cells at 2 to 8 ug/ml incubated for 24 hrs by DCFH-DA dye based microplate reader analysis; type: functional, organism-based

CCCCCCCCC[C@@H](O)[C@H](CO)n1cc(-c2ccccc2)nn1
MIC (Staphylococcus aureus [1]): 7.8 µg/mL (≈ 22.6 µM) | MIC (Bacillus subtilis [2]): 15.6 µg/mL (≈ 45.2 µM) | MIC (Staphylococcus aureus [3]): 15.6 µg/mL (≈ 45.2 µM) | MIC (Micrococcus luteus [4]): 3.9 µg/mL (≈ 11.3 µM) | MIC (Raoultella planticola [5]): 31.2 µg/mL (≈ 90.3 µM) | MIC (Escherichia coli [6]): > 250 µg/mL | MIC (Pseudomonas aeruginosa): > 250 µg/mL | MIC (Candida albicans [7]): 62.5 µg/mL (≈ 181 µM) | MIC (Candida albicans [8]): 31.2 µg/mL (≈ 90.3 µM) | MIC (Candida albicans [9]): 62.5 µg/mL (≈ 181 µM) | MIC (Candida albicans [10]): 125 µg/mL (≈ 362 µM) | MIC (Candida albicans [11]): 62.5 µg/mL (≈ 181 µM) | MIC (Candida albicans [12]): 125 µg/mL (≈ 362 µM) | MIC (Candida albicans [13]): 62.5 µg/mL (≈ 181 µM) | MIC (Candida albicans [14]): 125 µg/mL (≈ 362 µM) | MIC (Candida albicans [15]): 62.5 µg/mL (≈ 181 µM) | MIC (Candida parapsilosis [16]): 31.2 µg/mL (≈ 90.3 µM) | MIC ([Candida] aaseri [17]): 31.2 µg/mL (≈ 90.3 µM) | MIC (Nakaseomyces glabratus [18]): 62.5 µg/mL (≈ 181 µM) | MIC (Pichia kudriavzevii [19]): 62.5 µg/mL (≈ 181 µM) | MIC (Pichia sporocuriosa [20]): 62.5 µg/mL (≈ 181 µM) | MBC (Staphylococcus aureus [21]): 15.6 µg/mL (≈ 45.2 µM) | MBC (Bacillus subtilis [22]): 15.6 µg/mL (≈ 45.2 µM) | MBC (Staphylococcus aureus [23]): 31.2 µg/mL (≈ 90.3 µM) | MBC (Micrococcus luteus [24]): 7.8 µg/mL (≈ 22.6 µM) | MBC (Raoultella planticola [25]): 62.5 µg/mL (≈ 181 µM) | MBC (Escherichia coli [26]): > 250 µg/mL | MFC (Candida albicans [27]): 62.5 µg/mL (≈ 181 µM) | MFC (Candida albicans [28]): 62.5 µg/mL (≈ 181 µM) | MFC (Candida albicans [29]): 62.5 µg/mL (≈ 181 µM) | MFC (Candida albicans [30]): 125 µg/mL (≈ 362 µM) | MFC (Candida albicans [31]): 125 µg/mL (≈ 362 µM) | MFC (Candida albicans [32]): 125 µg/mL (≈ 362 µM) | MFC (Candida albicans [33]): 125 µg/mL (≈ 362 µM) | MFC (Candida albicans [34]): 125 µg/mL (≈ 362 µM) | MFC (Candida albicans [35]): 62.5 µg/mL (≈ 181 µM) | MFC (Candida parapsilosis [36]): 62.5 µg/mL (≈ 181 µM) | MFC ([Candida] aaseri [37]): 31.2 µg/mL (≈ 90.3 µM) | MFC (Nakaseomyces glabratus [38]): 62.5 µg/mL (≈ 181 µM) | MFC (Pichia kudriavzevii [39]): 62.5 µg/mL (≈ 181 µM) | MFC (Pichia sporocuriosa [40]): 125 µg/mL (≈ 362 µM)

Clc1ccc(COC(Cn2ccnc2)c2ccc(Cl)cc2Cl)c(Cl)c1 (stereo not given) [MICONAZOLE]
MIC (Candida albicans [7]): 7.8 µg/mL (≈ 18.7 µM) | MIC (Candida albicans [8]): 7.8 µg/mL (≈ 18.7 µM) | MIC (Candida albicans [9]): 7.8 µg/mL (≈ 18.7 µM) | MIC (Candida albicans [10]): 7.8 µg/mL (≈ 18.7 µM) | MIC (Candida albicans [11]): 7.8 µg/mL (≈ 18.7 µM) | MIC (Candida albicans [12]): 7.8 µg/mL (≈ 18.7 µM) | MIC (Candida albicans [13]): 7.8 µg/mL (≈ 18.7 µM) | MIC (Candida albicans [14]): 7.8 µg/mL (≈ 18.7 µM) | MIC (Candida albicans [15]): 7.8 µg/mL (≈ 18.7 µM) | MIC (Candida parapsilosis [16]): 7.8 µg/mL (≈ 18.7 µM) | MIC ([Candida] aaseri [17]): 7.8 µg/mL (≈ 18.7 µM) | MIC (Nakaseomyces glabratus [18]): 7.8 µg/mL (≈ 18.7 µM) | MIC (Pichia kudriavzevii [19]): 7.8 µg/mL (≈ 18.7 µM) | MIC (Pichia sporocuriosa [20]): 7.8 µg/mL (≈ 18.7 µM) | MFC (Candida albicans [27]): 7.8 µg/mL (≈ 18.7 µM) | MFC (Candida albicans [28]): 15.6 µg/mL (≈ 37.5 µM) | MFC (Candida albicans [29]): 15.6 µg/mL (≈ 37.5 µM) | MFC (Candida albicans [30]): 15.6 µg/mL (≈ 37.5 µM) | MFC (Candida albicans [31]): 7.8 µg/mL (≈ 18.7 µM) | MFC (Candida albicans [32]): 7.8 µg/mL (≈ 18.7 µM) | MFC (Candida albicans [33]): 15.6 µg/mL (≈ 37.5 µM) | MFC (Candida albicans [34]): 7.8 µg/mL (≈ 18.7 µM) | MFC (Candida albicans [35]): 7.8 µg/mL (≈ 18.7 µM) | MFC (Candida parapsilosis [36]): 7.8 µg/mL (≈ 18.7 µM) | MFC ([Candida] aaseri [37]): 7.8 µg/mL (≈ 18.7 µM) | MFC (Nakaseomyces glabratus [38]): 15.6 µg/mL (≈ 37.5 µM) | MFC (Pichia kudriavzevii [39]): 7.8 µg/mL (≈ 18.7 µM) | MFC (Pichia sporocuriosa [40]): 7.8 µg/mL (≈ 18.7 µM) | Activity (Candida albicans [41]): Active
